Laboratory results from patent US20250059198A1, “BRM DEGRADING COMPOUNDS AND ASSOCIATED METHODS OF USE” (Arvinas Operations, Inc., priority 2021, published 2025).

Molecular target: T1, BRM (Homo sapiens, UniProt P51531)
T1 construct: Western Blot Screen of BRM Degradation in SW1573 Cells; endogenous in cells; host or cells: SW1573 cells
Test: BRM degradation (Dmax and DC50) in SW1573 cells, Western blot screen / In-Cell Western screen
Assay type: cell-based
Details: overnight (18-20 hours) treatment; for Dmax: read-out: Dmax (%)** (% degraded)
Summary of the method: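 SW1573 cells were treated with compound for 18–20 h (final 0.1% DMSO). BRM was quantified either by Western blot of RIPA lysates or by fixed-cell In-Cell Western (LI-COR, 800/680 nm), each normalised to alpha-tubulin, giving Dmax and DC50.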

T1 sequence (P51531 whole entry): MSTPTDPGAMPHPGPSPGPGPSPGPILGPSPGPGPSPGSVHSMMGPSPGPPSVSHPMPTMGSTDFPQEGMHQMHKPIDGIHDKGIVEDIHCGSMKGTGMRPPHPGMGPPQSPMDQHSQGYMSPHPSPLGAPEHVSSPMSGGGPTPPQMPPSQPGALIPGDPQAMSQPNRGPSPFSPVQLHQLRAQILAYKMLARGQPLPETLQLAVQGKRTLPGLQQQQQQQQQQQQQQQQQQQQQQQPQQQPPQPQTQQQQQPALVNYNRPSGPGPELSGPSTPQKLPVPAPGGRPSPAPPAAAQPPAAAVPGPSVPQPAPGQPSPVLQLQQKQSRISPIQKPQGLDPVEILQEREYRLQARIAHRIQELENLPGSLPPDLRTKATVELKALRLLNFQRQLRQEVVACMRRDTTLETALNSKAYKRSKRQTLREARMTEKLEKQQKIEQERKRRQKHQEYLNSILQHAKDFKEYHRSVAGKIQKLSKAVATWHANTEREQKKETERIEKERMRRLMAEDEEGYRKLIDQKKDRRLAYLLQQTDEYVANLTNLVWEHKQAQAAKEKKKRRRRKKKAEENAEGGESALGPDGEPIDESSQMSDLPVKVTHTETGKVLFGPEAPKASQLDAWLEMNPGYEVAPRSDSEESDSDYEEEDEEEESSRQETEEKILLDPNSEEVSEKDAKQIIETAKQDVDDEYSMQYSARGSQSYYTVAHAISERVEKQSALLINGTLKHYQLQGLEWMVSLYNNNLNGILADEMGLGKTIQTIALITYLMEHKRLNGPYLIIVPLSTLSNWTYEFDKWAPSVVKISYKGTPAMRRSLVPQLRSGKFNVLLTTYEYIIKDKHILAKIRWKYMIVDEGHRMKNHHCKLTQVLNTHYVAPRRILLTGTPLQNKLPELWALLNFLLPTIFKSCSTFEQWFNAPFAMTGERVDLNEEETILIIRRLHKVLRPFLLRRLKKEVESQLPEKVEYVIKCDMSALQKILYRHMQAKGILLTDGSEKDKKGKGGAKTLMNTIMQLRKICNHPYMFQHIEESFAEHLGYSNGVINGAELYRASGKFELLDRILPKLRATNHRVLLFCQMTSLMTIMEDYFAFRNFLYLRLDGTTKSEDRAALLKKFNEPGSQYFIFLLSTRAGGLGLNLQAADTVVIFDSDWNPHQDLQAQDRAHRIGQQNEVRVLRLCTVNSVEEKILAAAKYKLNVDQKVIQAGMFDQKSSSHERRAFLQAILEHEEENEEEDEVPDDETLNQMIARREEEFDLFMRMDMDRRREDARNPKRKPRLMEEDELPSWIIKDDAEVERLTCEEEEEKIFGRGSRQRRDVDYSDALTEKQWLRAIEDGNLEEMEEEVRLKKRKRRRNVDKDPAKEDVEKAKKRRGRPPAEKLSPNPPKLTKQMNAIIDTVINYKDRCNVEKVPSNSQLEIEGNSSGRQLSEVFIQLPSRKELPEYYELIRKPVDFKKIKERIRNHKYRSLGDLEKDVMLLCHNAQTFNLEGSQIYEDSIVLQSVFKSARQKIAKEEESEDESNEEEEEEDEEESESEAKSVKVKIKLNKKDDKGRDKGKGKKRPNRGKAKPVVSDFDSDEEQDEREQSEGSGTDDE

Compound	DC50 [nM]	Dmax [%]
CC(C)[C@@H](C(=O)N1C[C@H](O)C[C@H]1C(=O)N[C@@H](C)c1ccc(C#N)cc1)c1cc(OCCN2CCN(CCOc3cc(N4C5CCC4CN(c4cc(-c6ccccc6O)nnc4N)C5)ccn3)CC2)no1 [Compound 66, (2S,4R)-1-[(2R)-2-{3-[2-(4-{2-[(4-{3-[3-amino-6-(2-hydroxyphenyl)pyridazin-4-yl]-3,8-diazabicyclo[3.2.1]octan-8-yl}pyridin-2-yl)oxy]ethyl}piperazin-1-yl)ethoxy]-1,2-oxazol-5-yl}-3-methylbutanoyl]-N-[(1S)-1-(4-cyanophenyl)ethyl]-4-hydroxypyrrolidine-2-carboxamide]	2.5 to 10	> 75
Cc1ncsc1-c1ccc([C@H](C)NC(=O)[C@@H]2C[C@@H](O)CN2C(=O)[C@@H](c2cc(O[C@H]3C[C@H](CN4CCC(O[C@H]5C[C@H](N6CCOC7(CCN(c8cc(-c9ccccc9O)nnc8N)CC7)C6)C5)CC4)C3)no2)C(C)C)cc1 [Compound 68, (2S,4R)-4-hydroxy-N-[(1S)-1-[4-(4-methyl-1,3-thiazol-5-yl)phenyl]ethyl]-1-[(2R)-3-methyl-2-{3-[(1r,3r)-3-({4-[(1r,3r)-3-{9-[3-amino-6-(2-hydroxyphenyl)pyridazin-4-yl]-1-oxa-4,9-diazaspiro[5.5]undecan-4-yl}cyclobutoxy]piperidin-1-yl}methyl)cyclobutoxy]-1,2-oxazol-5-yl}butanoyl]pyrrolidine-2-carboxamide]	< 2.5	> 75
Cc1ncsc1-c1ccc([C@H](C)NC(=O)C2C[C@@H](O)CN2C(=O)[C@@H](c2cc(N3CCC(CN4CC[C@H](Oc5cc(N6C7CCC6CN(c6cc(-c8ccccc8O)nnc6N)C7)ccn5)C(F)(F)C4)CC3)no2)C(C)C)cc1 (stereo in doubt) [Compound 54, (2S,4R)-1-[(2R)-2-[3-(4-{[(4S)-4-[(4-{3-[3-amino-6-(2-hydroxyphenyl)pyridazin-4-yl]-3,8-diazabicyclo[3.2.1]octan-8-yl}pyridin-2-yl)oxy]-3,3-difluoropiperidin-1-yl]methyl}piperidin-1-yl)-1,2-oxazol-5-yl]-3-methylbutanoyl]-4-hydroxy-N-[(1S)-1-[4-(4-methyl-1,3-thiazol-5-yl)phenyl]ethyl]pyrrolidine-2-carboxamide]	2.5 to 10	> 75
CC(C)[C@H](C(=O)N1C[C@H](O)C[C@H]1C(=O)N[C@@H](C)c1ccc(Cl)cc1)c1cc(N2CCC(CN3CCC(O[C@H]4C[C@H](Oc5cc(N6C7CCC6CN(c6cc(-c8ccccc8O)nnc6N)C7)ccn5)C4)CC3)CC2)no1 [Compound 46, (2S,4R)-N-[(1S)-1-(4-chlorophenyl)ethyl]-4-hydroxy-1-[(2S)-3-methyl-2-{3-[4-({4-[(1r,3r)-3-[(4-{3-[3-amino-6-(2-hydroxyphenyl)pyridazin-4-yl]-3,8-diazabicyclo[3.2.1]octan-8-yl}pyridin-2-yl)oxy]cyclobutoxy]piperidin-1-yl}methyl)piperidin-1-yl]-1,2-oxazol-5-yl}butanoyl]pyrrolidine-2-carboxamide]	≥ 30	
Cc1ncsc1-c1ccc([C@H](C)NC(=O)[C@@H]2C[C@@H](O)CN2C(=O)[C@@H](c2cc(N3CCC(CN4CCCC5(CC(N6CCO[C@H](CN7C8CCC7CN(c7cc(-c9ccccc9O)nnc7N)C8)C6)C5)C4)CC3)no2)C(C)C)cc1 (stereo partly drawn) [Compound 142, (2S,4R)-1-[(2R)-2-{3-[4-({2-[(2S)-2-({3-[3-amino-6-(2-hydroxyphenyl)pyridazin-4-yl]-3,8-diazabicyclo[3.2.1]octan-8-yl}methyl)morpholin-4-yl]-6-azaspiro[3.5]nonan-6-yl}methyl)piperidin-1-yl]-1,2-oxazol-5-yl}-3-methylbutanoyl]-4-hydroxy-N-[(1S)-1-[4-(4-methyl-1,3-thiazol-5-yl)phenyl]ethyl]pyrrolidine-2-carboxamide]	< 2.5	> 75
Cc1ncsc1-c1ccc([C@H](C)NC(=O)[C@@H]2C[C@@H](O)CN2C(=O)[C@@H](c2cc(N3CCC(CN4CCC5(CC4)CC(N4CCC(F)(F)C(CN6C7CCC6CN(c6cc(-c8ccccc8O)nnc6N)C7)C4)C5)CC3)no2)C(C)C)cc1 (stereo partly drawn) [Compound 120, (2S,4R)-1-[(2R)-2-{3-[4-({2-[3-({3-[3-amino-6-(2-hydroxyphenyl)pyridazin-4-yl]-3,8-diazabicyclo[3.2.1]octan-8-yl}methyl)-4,4-difluoropiperidin-1-yl]-7-azaspiro[3.5]nonan-7-yl}methyl)piperidin-1-yl]-1,2-oxazol-5-yl}-3-methylbutanoyl]-4-hydroxy-N-[(1S)-1-[4-(4-methyl-1,3-thiazol-5-yl)phenyl]ethyl]pyrrolidine-2-carboxamide]	< 2.5	> 75
Cc1ncsc1-c1ccc([C@H](C)NC(=O)[C@@H]2C[C@@H](O)CN2C(=O)[C@@H](c2cc(N3CCN(C(=O)N4CC(Oc5cc(N6C7CCC6CN(c6cc(-c8ccccc8O)nnc6N)C7)ccn5)C4)CC3)no2)C(C)C)cc1 [Compound 129, (2S,4R)-1-[(2R)-2-[3-(4-{3-[(4-{3-[3-amino-6-(2-hydroxyphenyl)pyridazin-4-yl]-3,8-diazabicyclo[3.2.1]octan-8-yl}pyridin-2-yl)oxy]azetidine-1-carbonyl}piperazin-1-yl)-1,2-oxazol-5-yl]-3-methylbutanoyl]-4-hydroxy-N-[(1S)-1-[4-(4-methyl-1,3-thiazol-5-yl)phenyl]ethyl]pyrrolidine-2-carboxamide]	2.5 to 10	> 75
Cc1ncsc1-c1ccc([C@H](C)NC(=O)[C@@H]2C[C@@H](O)CN2C(=O)[C@@H](c2cc(N3CCC(CN4CCC(N5CCC6(CC5)CC(Oc5cc(N7C8CCC7CN(c7cc(-c9ccccc9O)nnc7N)C8)ccn5)C6)CC4)CC3)no2)C(C)C)cc1 [Compound 43, (2S,4R)-1-[(2R)-2-(3-{4-[(4-{2-[(4-{3-[3-amino-6-(2-hydroxyphenyl)pyridazin-4-yl]-3,8-diazabicyclo[3.2.1]octan-8-yl}pyridin-2-yl)oxy]-7-azaspiro[3.5]nonan-7-yl}piperidin-1-yl)methyl]piperidin-1-yl}-1,2-oxazol-5-yl)-3-methylbutanoyl]-4-hydroxy-N-[(1S)-1-[4-(4-methyl-1,3-thiazol-5-yl)phenyl]ethyl]pyrrolidine-2-carboxamide]	< 2.5	> 75
Cc1nccn1-c1ccc([C@H](C)NC(=O)[C@@H]2C[C@@H](O)CN2C(=O)[C@H](c2cc(N3CCC(CN4CCC(O[C@H]5C[C@H](N6CCC(C(C)n7cc(C#Cc8cc(-c9ccccc9O)nnc8N)cn7)CC6)C5)CC4)CC3)no2)C(C)C)cc1 (stereo partly drawn) [Compound 90, (2S,4R)-4-hydroxy-N-[(1S)-1-[4-(2-methyl-1H-imidazol-1-yl)phenyl]ethyl]-1-[(2S)-3-methyl-2-{3-[4-({4-[(1r,3r)-3-{4-[1-(4-{2-[3-amino-6-(2-hydroxyphenyl)pyridazin-4-yl]ethynyl}-1H-pyrazol-1-yl)ethyl]piperidin-1-yl}cyclobutoxy]piperidin-1-yl}methyl)piperidin-1-yl]-1,2-oxazol-5-yl}butanoyl]pyrrolidine-2-carboxamide]	≥ 30	
Cc1ncsc1-c1ccc([C@H](C)NC(=O)[C@@H]2C[C@@H](O)CN2C(=O)[C@@H](c2cc(N3CCC(CN4CCC5(CC4)CC(Oc4cc(N6C7CCC6CN(c6cc(-c8ccccc8O)nnc6N)C7)ccn4)C5)CC3)no2)C(C)C)cc1 [Compound 29, (2S,4R)-1-[(2R)-2-{3-[4-({2-[(4-{3-[3-amino-6-(2-hydroxyphenyl)pyridazin-4-yl]-3,8-diazabicyclo[3.2.1]octan-8-yl}pyridin-2-yl)oxy]-7-azaspiro[3.5]nonan-7-yl}methyl)piperidin-1-yl]-1,2-oxazol-5-yl}-3-methylbutanoyl]-4-hydroxy-N-[(1S)-1-[4-(4-methyl-1,3-thiazol-5-yl)phenyl]ethyl]pyrrolidine-2-carboxamide]	< 2.5	> 75
Cc1ncsc1-c1ccc([C@H](CC(=O)N2CCC(CN3CCC(O[C@H]4C[C@H](Oc5cc(N6C7CCC6CN(c6cc(-c8ccccc8O)nnc6N)C7)ccn5)C4)CC3)CC2)NC(=O)[C@@H]2C[C@@H](O)CN2C(=O)[C@@H](C(C)C)N2Cc3ccccc3C2=O)cc1 [Compound 37, (2S,4R)-4-hydroxy-N-[(1S)-1-[4-(4-methyl-1,3-thiazol-5-yl)phenyl]-3-oxo-3-[4-({4-[(1r,3r)-3-[(4-{3-[3-amino-6-(2-hydroxyphenyl)pyridazin-4-yl]-3,8-diazabicyclo[3.2.1]octan-8-yl}pyridin-2-yl)oxy]cyclobutoxy]piperidin-1-yl}methyl)piperidin-1-yl]propyl]-1-[(2R)-3-methyl-2-(1-oxo-2,3-dihydro-1H-isoindol-2-yl)butanoyl]pyrrolidine-2-carboxamide]	≥ 30	
Cc1ncsc1-c1ccc([C@H](C)NC(=O)[C@@H]2C[C@@H](O)CN2C(=O)[C@@H](c2cc(N3CCC(CN4CC[C@H](Oc5cc(N6C7CCC6CN(c6cc(-c8ccccc8O)nnc6N)C7)ccn5)[C@@H](F)C4)CC3)no2)C(C)C)cc1 [Compound 60, (2S,4R)-1-[(2R)-2-[3-(4-{[(3S,4S)-4-[(4-{3-[3-amino-6-(2-hydroxyphenyl)pyridazin-4-yl]-3,8-diazabicyclo[3.2.1]octan-8-yl}pyridin-2-yl)oxy]-3-fluoropiperidin-1-yl]methyl}piperidin-1-yl)-1,2-oxazol-5-yl]-3-methylbutanoyl]-4-hydroxy-N-[(1S)-1-[4-(4-methyl-1,3-thiazol-5-yl)phenyl]ethyl]pyrrolidine-2-carboxamide]	< 2.5	> 75
